Among the data in patent US20220242846A1, “ISOINDOLINONE COMPOUNDS” (Monte Rosa Therapeutics AG, priority 2019, published 2022) are DC50 and IC50 values, retold here.

One assay concerns the target GSPT1 (Homo sapiens, UniProt P15170+Q96SW2). Description: Immunofluorescence assay for GSPT1 degradation in CAL-51 cells. The format is cell-based. On the set-up: CAL-51 cells were purchased from DSMZ (cat. Number ACC302); endogenous in cells; host or cells: CAL-51 (DSMZ ACC302). To be noted: compound treatment 6 hours. Here is the method:
CAL-51 cells were purchased from DSMZ (cat. Number ACC302), sub-cultured in 90% Dulbecco's MEM (4.5 g/L glucose, Gibco 11965) +10% heat inactivated FBS (BioConcept, 2-01F136I) and incubated at 37° C., 5% CO2. For the assay, imaging microtiterplate Cell Carrier 96 Ultra (Perkin Elmer 6055302) were pre-coated with Fibronectin (Sigma F085, 300 at 0.2 μg/ml) in PBS (1000, Gibco 14190) for 45 min at room temperature, rinsed with PBS and CAL-51 cells (30K cells/well) were plated and let to adhere overnight. Cells were treated with compounds typically using a serial dilution ranging from 30 μM to 0.1 nM for 6 hours. Compounds were stored at 10 mM DMSO stocks. Vehicle (DMSO), positive (CC-885, 10 μM) and rescue controls (positive control plus 0.2 μM bortezomib) were also included at this stage. Cells were subsequently rinsed with PBS and fixed in 10% Formalin solution (50 μl, Sigma HT5011)) for 20 mins at room temperature. Following three consecutive PBS washes (100 μl), cells were permeabilized in 0.1% Triton X-100 in PBS (Sigma 93443, 50 μl) for 15 mins at room temperature. Following three further PBS washes, 50 μl blocking buffer (1% BSA, Sigma A4503, in PBS) was added for 45 min for signal-to-noise reduction. Primary antibody (human GSPT1, Sigma HPA052488) was diluted in blocking buffer (dil. 1/300, 35 μl/well) and incubated with the cells overnight at 4° C. After three PBS washes, Alexa-fluor 488 coupled secondary antibodies (Invitrogen, A32731, dil. 1/1000), Alexa-fluor 647-Phalloïdin (Invitrogen, A22287, dil. 1/200) and DAPI (Thermo, #62248, dil.1/1000) were diluted in blocking buffer and incubated with the samples for 2 hours at room temperature. After three final PBS washes, samples were conserved in 1000 PBS in the dark, until measurement. Image acquisition was performed on the Operetta High-Content Imager (Perkin-Elmer). Fluorescence intensity of Alexa-Fluor 488 (GSPT1), Alexa-Fluor 647 (Actin) and DAPI (Nucleus) were measured. For the determination of GSPT1 DC50 values, a custom algorithm implemented in the PerkinElmer image analysis software Harmony-Acapella® was developed. After user-defined setting of adjustment parameters, the analysis was run identically without human intervention for all image fields. DAPI staining of the nuclei was used to determine the location of cells using standard nuclei detection modules. Segmentation artifacts were removed by threshold-based filters for area, roundness and intensity. The outline of the cells was determined analogously from the sum of the normalized, smoothed DAPI and Actin channel, starting from each nucleus. The Alexa-Fluor 488 (GSPT1) signal intensity in each cell was finally measured, in order to obtain a Mean intensity per cell. GSPT1 degradation (DC50) was calculated after normalization to controls and data import in CDD vault Database, using non-linear regression. Activity for GSPT1 Degradation Table 3 assigns each compound a code indicating the ability for GSPT1 degradation: A, B or C. According to the code, A represents a DC50 value of ≤100 nM, B represents a DC50 value >100 nM and ≤300 nM and C represents a DC50 value of >300 nM.

Assay [1] deals with T1, Full length wild-type cereblon CRBN (Homo sapiens, UniProt Q96SW2).
T1 construct: Full length wild-type cereblon CRBN (80.0 nM, 10 μL) was incubated in assay buffer
T1 sequence (Q96SW2 whole entry): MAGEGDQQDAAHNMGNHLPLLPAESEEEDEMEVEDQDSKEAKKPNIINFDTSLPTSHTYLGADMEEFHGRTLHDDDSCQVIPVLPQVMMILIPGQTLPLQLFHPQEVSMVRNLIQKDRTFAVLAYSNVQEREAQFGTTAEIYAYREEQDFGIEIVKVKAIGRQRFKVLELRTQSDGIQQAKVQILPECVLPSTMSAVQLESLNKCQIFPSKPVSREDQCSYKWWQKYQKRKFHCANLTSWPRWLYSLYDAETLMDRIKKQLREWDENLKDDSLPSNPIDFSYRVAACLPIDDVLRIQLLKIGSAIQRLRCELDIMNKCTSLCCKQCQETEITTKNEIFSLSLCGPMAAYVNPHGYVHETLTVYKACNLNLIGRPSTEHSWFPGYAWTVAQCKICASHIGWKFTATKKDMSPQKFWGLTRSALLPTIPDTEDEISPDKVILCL
Description: Fluorescence polarization (FP) assay indicating cereblon binding. The note with it: CRBN 80.0 nM, fluorescent probe 5 nM, FP measured after 12 hours; read-out: rFP IC50. From the text: Protocol for Fluorescent Polarization Assay
Compound activity was monitored in a fluorescence polarization (FP) homogeneous assay using 1-[5-({2-[2-(2-{[2-(2,6-dioxopiperidin-3-yl)-1,3-dioxo-2,3-dihydro-1H-isoindol-4-yl]oxy}acetamido)ethoxy]ethyl}carbamoyl)pentyl]-3,3-dimethyl-2-[(1E,3E)-5-[(2E)-1,3,3-trimethyl-5-sulfo-2,3-dihydro-1H-indol-2-ylidene]penta-1,3-dien-1-yl]-3H-indol-1-ium-5-sulfonate as a fluorescent probe. Unless otherwise stated, all reagents were purchased from Sigma Aldrich. Enzymatic reactions were conducted in Perkin-Elmer Black 384 well ProxiPlate Plus (catalogue no. 6008269) in 10 μL total volume. Full length wild-type cereblon CRBN (80.0 nM, 10 μL) was incubated in assay buffer containing 20 mM HEPES (pH 8.0), […], 0.5 mM TCEP and 0.05% Tween 20 in the presence or absence of compound (300 nL). Inhibitors were stored as 10 mM DMSO stocks in an inert environment (low humidity, dark, low oxygen, room temperature) using the Storage Pod System. Compounds and DMSO were dispensed using the Echo E5XX (Labcyte Inc. USA) to give concentrations from 300 to 0.937 or 3000 to 9.3 nM in a 12 data point curve. […] Following incubation at room temperature for […], the assay was initiated by dispensing the probe to a final concentration of 5 nM (2.5 nL of a 20 μM stock) using the Echo E5XX. FP was measured after a period of 12 hours using a Pherastar plate reader (BMG Labtech, Germany) exciting at 590 nm and measuring the amount of parallel and perpendicular light at 675 nm. The FP signal was subsequently normalized to the no-compound control (i.e., DMSO). Analysis and IC50 values were derived using Dotmatics (Dotmatics UK) software.

Where [2] appears, read: GSPT1 degradation, read-out: DC50.
Setting [3] is: read-out: Code: activity for GSPT1 degradation (DC50).

pIC50: −log10 of the molar value. Read-outs that look alike come from different tables or passages of the source.

Sequence of GSPT1 (P15170 whole entry): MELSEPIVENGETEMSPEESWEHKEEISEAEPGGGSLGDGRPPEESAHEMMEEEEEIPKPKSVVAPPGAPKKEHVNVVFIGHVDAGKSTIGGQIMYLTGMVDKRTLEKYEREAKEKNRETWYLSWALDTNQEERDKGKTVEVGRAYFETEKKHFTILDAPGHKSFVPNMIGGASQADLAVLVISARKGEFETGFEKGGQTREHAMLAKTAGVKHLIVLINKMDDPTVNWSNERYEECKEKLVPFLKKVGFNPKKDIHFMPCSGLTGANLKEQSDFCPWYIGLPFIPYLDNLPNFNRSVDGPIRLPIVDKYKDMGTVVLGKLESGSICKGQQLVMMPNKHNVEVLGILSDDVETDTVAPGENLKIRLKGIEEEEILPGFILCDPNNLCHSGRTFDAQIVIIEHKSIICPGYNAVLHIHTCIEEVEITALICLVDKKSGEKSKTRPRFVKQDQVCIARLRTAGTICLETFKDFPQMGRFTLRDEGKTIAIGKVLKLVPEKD
Sequence of GSPT1 (Q96SW2 whole entry): as the sequence (Q96SW2 whole entry) above
Sequence of GSPT1 (Q16531 2-1140 partner limits assumed): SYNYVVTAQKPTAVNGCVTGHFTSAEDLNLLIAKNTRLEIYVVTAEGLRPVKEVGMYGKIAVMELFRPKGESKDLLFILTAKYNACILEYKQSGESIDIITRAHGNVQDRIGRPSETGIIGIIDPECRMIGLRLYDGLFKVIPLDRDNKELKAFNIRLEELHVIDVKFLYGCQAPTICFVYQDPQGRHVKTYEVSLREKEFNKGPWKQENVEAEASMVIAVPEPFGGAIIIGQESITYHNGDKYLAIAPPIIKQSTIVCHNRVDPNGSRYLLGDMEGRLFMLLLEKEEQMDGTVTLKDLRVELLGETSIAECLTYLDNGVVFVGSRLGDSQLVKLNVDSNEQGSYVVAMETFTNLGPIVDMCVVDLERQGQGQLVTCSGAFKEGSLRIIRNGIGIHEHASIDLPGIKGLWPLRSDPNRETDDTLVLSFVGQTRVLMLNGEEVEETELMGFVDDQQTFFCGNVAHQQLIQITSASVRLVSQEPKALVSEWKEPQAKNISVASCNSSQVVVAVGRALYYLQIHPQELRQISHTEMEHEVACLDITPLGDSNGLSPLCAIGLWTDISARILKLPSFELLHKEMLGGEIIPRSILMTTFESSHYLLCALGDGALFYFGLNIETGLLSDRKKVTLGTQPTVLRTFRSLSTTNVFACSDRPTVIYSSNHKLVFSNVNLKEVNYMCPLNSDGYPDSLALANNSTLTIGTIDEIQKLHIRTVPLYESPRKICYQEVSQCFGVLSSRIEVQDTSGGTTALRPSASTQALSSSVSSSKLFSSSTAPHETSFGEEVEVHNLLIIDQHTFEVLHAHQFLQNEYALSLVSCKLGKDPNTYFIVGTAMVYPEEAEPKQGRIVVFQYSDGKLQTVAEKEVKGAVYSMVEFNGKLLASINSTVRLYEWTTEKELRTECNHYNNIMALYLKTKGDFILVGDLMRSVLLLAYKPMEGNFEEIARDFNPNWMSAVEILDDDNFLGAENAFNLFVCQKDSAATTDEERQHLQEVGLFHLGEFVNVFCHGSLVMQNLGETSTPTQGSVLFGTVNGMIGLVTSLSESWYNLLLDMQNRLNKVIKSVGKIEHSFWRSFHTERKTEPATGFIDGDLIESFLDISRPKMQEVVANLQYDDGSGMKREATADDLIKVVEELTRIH

For `Cc1ccc(NC(=O)NCc2ccc3c(c2)C(=O)N(C2CCC(=O)NC2=O)C3)cc1CN1CCOCC1` (stereo not shown) [Compound 101, 1-((2-(2,6-dioxopiperidin-3-yl)-3-oxoisoindolin-5-yl)methyl)-3-(4-methyl-3-(morpholinomethyl)phenyl)urea], the DC50 was 224 nM on GSPT1 (setting [2]) and 100 to 300 nM at GSPT1 (setting [3]). Further, in assay [1], the negative logarithm of the IC50 (pIC50) is 6.49.
In the case of `CN1CCC(Oc2cc(Cl)cc(NC(=O)NCc3ccc4c(c3)C(=O)N(C3CCC(=O)NC3=O)C4)c2)C1` (stereo not shown) [Compound 162], at GSPT1 (setting [3]), the DC50 is more than 300 nM. In assay [1], the pIC50 was 6.16.
Consider `Cc1c(Cl)cc(NC(=O)NCc2ccc3c(c2)C(=O)N(C2CCC(=O)NC2=O)C3)cc1CN1CCN2CCC1C2` (stereo not shown) [Compound 154], for which the pIC50 in assay [1] is 6.16.
On to `Cc1cc(C)c(NC(=O)NCc2ccc3c(c2)C(=O)N(C2CCC(=O)NC2=O)C3)c(Cl)c1Cl` (stereo not shown) [Compound 100], for which the DC50 at GSPT1 (setting [3]) was more than 300 nM. For the same compound, in assay [1], the pIC50 is 6.75.
As to `Cc1c(Cl)cc(NC(=O)NCc2ccc3c(c2)C(=O)N(C2CCC(=O)NC2=O)C3)cc1OCCCN(C)C` (stereo not shown) [Compound 117], the DC50 on GSPT1 (setting [3]) was more than 300 nM. Further, in assay [1], the pIC50 is 6.82.
With `O=C1CCC(N2Cc3ccc(CNC(=O)Nc4cscn4)cc3C2=O)C(=O)N1` (stereo not shown) [Compound 99], on GSPT1 (setting [3]), the DC50 is more than 300 nM. The pIC50 in assay [1] was 6.44.
The like results for `Cc1cc(NC(=O)NCc2ccc3c(c2)C(=O)N(C2CCC(=O)NC2=O)C3)cc(C)n1` (stereo not shown) [Compound 158] were, in that order, more than 300 nM and 5.84.
The like results for `O=C1CCC(N2Cc3ccc(CNC(=O)Nc4cc(OC(F)(F)F)ccn4)cc3C2=O)C(=O)N1` (stereo not shown) [Compound 164] were, in that order, more than 300 nM and 5.80.
Turning to `O=C1CCC(N2Cc3ccc(CNC(=O)Nc4cc[nH]c4)cc3C2=O)C(=O)N1` (stereo not shown) [Compound 98], at GSPT1 (setting [3]), the half-maximal degradation concentration (DC50) is more than 300 nM. Besides, the negative logarithm of the IC50 (pIC50) in assay [1] is 6.39.
The like results for `O=C1CCC(N2Cc3ccc(CNC(=O)Nc4cc(C(F)(F)F)ns4)cc3C2=O)C(=O)N1` (stereo not shown) [Compound 149] were, in that order, more than 300 nM and 5.95.
The like results for `Cc1cc(NC(=O)NCc2ccc3c(c2)C(=O)N(C2CCC(=O)NC2=O)C3)sn1` (stereo not shown) [Compound 146] were, in that order, more than 300 nM and 6.47.
`O=C1CCC(N2Cc3ccc(CNC(=O)Nc4cccc(OC(=O)CN5CCOCC5)c4)cc3C2=O)C(=O)N1` (stereo not shown) [Compound 110]: the 50% degradation concentration (DC50) on GSPT1 (setting [3]) was more than 300 nM. Further, the pIC50 in assay [1] is 6.52.
For `O=C1CCC(N2Cc3ccc(CNC(=O)Nc4ccncc4)cc3C2=O)C(=O)N1` (stereo not shown) [Compound 104], the 50% degradation concentration (DC50) at GSPT1 (setting [3]) was more than 300 nM. Further, in assay [1], the pIC50 was 6.63.
For `O=C1CCC(N2Cc3ccc(CNC(=O)Nc4nccs4)cc3C2=O)C(=O)N1` (stereo not shown) [Compound 92] the same measures were more than 300 nM and 6.52.
Regarding `Cn1ccc(NC(=O)NCc2ccc3c(c2)C(=O)N(C2CCC(=O)NC2=O)C3)n1` (stereo not shown) [Compound 88], the DC50 at GSPT1 (setting [3]) is more than 300 nM. In assay [1], the pIC50 is 6.45.
The like results for `CN(C)c1ccc(NC(=O)NCc2ccc3c(c2)C(=O)N(C2CCC(=O)NC2=O)C3)cc1` (stereo not shown) [Compound 79] were, in that order, more than 300 nM and 6.50.
For `Cc1c(Cl)cc(NC(=O)NCc2ccc3c(c2)C(=O)N(C2CCC(=O)NC2=O)C3)cc1CC1COC(C)(C)OC1` (stereo not shown) [Compound 142] the same measures were not above 100 nM and 6.23.
On to `Cc1c(Cl)cc(NC(=O)NCc2ccc3c(c2)C(=O)N(C2CCC(=O)NC2=O)C3)cc1CN1CCN(C)CC1` (stereo not shown) [Compound 124], for which the DC50 on GSPT1 (setting [3]) is more than 300 nM. Besides, in assay [1], the pIC50 was 6.70.
Turning to `Cc1cc(C)c(NC(=O)NCc2ccc3c(c2)C(=O)N(C2CCC(=O)NC2=O)C3)c(C)c1Cl` (stereo not shown) [Compound 107], the DC50 on GSPT1 (setting [3]) is more than 300 nM. Besides, the negative-log IC50 (pIC50) in assay [1] is 6.61.
Take `Cc1c(Cl)cc(NC(=O)NCc2ccc3c(c2)C(=O)N(C2CCC(=O)NC2=O)C3)cc1CC(=O)O` (stereo not shown) [Compound 120]: the DC50 at GSPT1 (setting [3]) was more than 300 nM. Moreover, the pIC50 in assay [1] is 6.34.
As to `Cc1c(Cl)cc(NC(=O)NCc2ccc3c(c2)C(=O)N(C2CCC(=O)NC2=O)C3)cc1OCCN(C)C` (stereo not shown) [Compound 134], the DC50 at GSPT1 (setting [3]) was more than 300 nM. For the same compound, the negative-log IC50 (pIC50) in assay [1] is 6.40.
Regarding `Cc1c(Cl)cc(NC(=O)NCc2ccc3c(c2)C(=O)N(C2CCC(=O)NC2=O)C3)cc1CN1CCC(N2CCOCC2)CC1` (stereo not shown) [Compound 126], the DC50 at GSPT1 (setting [3]) is more than 300 nM. For the same compound, the pIC50 in assay [1] was 6.71.
The like results for `Cc1c(Cl)cc(NC(=O)NCc2ccc3c(c2)C(=O)N(C2CCC(=O)NC2=O)C3)cc1N1CCOCC1` (stereo not shown) [Compound 122] were, in that order, not above 100 nM and 6.18.
For `Cc1cc(NC(=O)NCc2ccc3c(c2)C(=O)N(C2CCC(=O)NC2=O)C3)no1` (stereo not shown) [Compound 97] the same measures were more than 300 nM and 6.52.
The like results for `O=C1CCC(N2Cc3ccc(CNC(=O)Nc4ccc(C(F)F)cc4)cc3C2=O)C(=O)N1` (stereo not shown) [Compound 114] were, in that order, more than 300 nM and 6.35.
For the compound `O=C1CCC(N2Cc3ccc(CNC(=O)Nc4ccon4)cc3C2=O)C(=O)N1` (stereo not shown) [Compound 94], on GSPT1 (setting [3]), the 50% degradation concentration (DC50) is more than 300 nM. Besides, the pIC50 in assay [1] is 6.39.
Regarding `O=C1CCC(N2Cc3ccc(CNC(=O)Nc4cccc(C(F)F)c4)cc3C2=O)C(=O)N1` (stereo not shown) [Compound 106], the DC50 was 188 nM on GSPT1 (setting [2]) and 100 to 300 nM at GSPT1 (setting [3]). In addition, in assay [1], the pIC50 is 6.45.
Turning to `O=C1CCC(N2Cc3ccc(CNC(=O)Nc4cc(Cl)cc(CN5CCOCC5)c4)cc3C2=O)C(=O)N1` (stereo not shown) [Compound 119], the DC50 at GSPT1 (setting [3]) is not above 100 nM. Also, the pIC50 in assay [1] was 6.39.
For the compound `Cc1c(Cl)cc(NC(=O)NCc2ccc3c(c2)C(=O)N(C2CCC(=O)NC2=O)C3)cc1C[C@H]1CO[C@H](C)OC1` (stereo partly shown) [Compound 141], the DC50 at GSPT1 (setting [3]) was not above 100 nM. In assay [1], the pIC50 is 6.45.
For `CN1CCC(COc2cc(Cl)cc(NC(=O)NCc3ccc4c(c3)C(=O)N(C3CCC(=O)NC3=O)C4)c2)C1` (stereo not shown) [Compound 161] the same measures were more than 300 nM and 6.52.
On to `Cc1nc(NC(=O)NCc2ccc3c(c2)C(=O)N(C2CCC(=O)NC2=O)C3)sc1C` (stereo not shown) [Compound 150], for which, at GSPT1 (setting [3]), the 50% degradation concentration (DC50) was more than 300 nM. Further, in assay [1], the pIC50 is 6.52.
On to `Cc1c(Cl)cc(NC(=O)NCc2ccc3c(c2)C(=O)N(C2CCC(=O)NC2=O)C3)cc1CN1CC2CCC(C1)O2` (stereo not shown) [Compound 140], for which, in assay [1], the pIC50 was 6.25.

Usually DC50 stands for the midpoint of the concentration-degradation curve. In general, pIC50 refers to the negative decadic logarithm of the IC50, by convention in mol/L.
